What all share (format): cell-based
The subject of series [1] is K-562. Kind of series: Antiproliferative activity on K-562 cells. To be noted: K562; K-562 human erythromyeloblastoid leukemia cells. How it is done:
(§1) For the detailed evaluation of its biological profile as anti-cancer agent, cultured human tumor cell lines were treated with the closthioamide 1. In particular, closthioamide 1 was tested for its inhibitory effect on cell growth of different human cell lines.

Series [2] relates to HUVEC. Kind of series: Antiproliferative activity on HUVEC cells. The note with it: HUVEC human umbilical vein endothelial cells. How it is done: as §1
Series [3] has as its system HeLa. Kind of series: Cytotoxicity on HeLa cells. The note with it: HeLa human epithelial cervical cancer. As for the experimental part: The major metabolite (1) was isolated from a 5 L culture and purified by sequential open column chromatography and RP-HPLC (FIG. 1), yielding 1.04 mg of a pale yellow compound. […] According to HR-MS measurements, 1 has a molecular formula of C29H38N6O2S6 and appeared to be amazingly rich in sulfur atoms. Furthermore, NMR data disclosed that the molecule is symmetrical: The ^13C NMR and DEPT spectra indicated the presence of six methylene, two methine, and five quaternary carbons. In the ^1H NMR spectrum signals corresponding to two olefinic and six methylene protons were observed (see Table 1).
as §1

Series [4] deals with Bacillus subtilis. The experiment in a line: Standardized antimicrobial assay (agar diffusion test). How it is done: (§2) For the detailed evaluation of their antimicrobial (antibacterial, antifungal) activity, dosthioamides according to the invention were subjected to standardized antimicrobial assays (Herold et al., Chem. Eur. J., 2005), e.g. agar diffusion test. In particular, closthioamide 1 was tested for its inhibitory effect on cell growth of different bacterial strains and/or fungi. The tested microbes included Bacillus subtilis, Staphylococcus aureus, E. coli, Pseudomonas aeruginosa, Staphylococcus aureus MRSA, Enterococcus faecalis VRE, Mycobacterium vaccae, Sporobolomyces salmonicolor, Candida albicans, and Penicillium notatum.

Series [5] has as its system Candida albicans. The series is described as above. How it is done: as §2
The test system of series [6] is E. coli. The series is described as above. How it is done: as §2
For series [7], the system named is Mycobacterium vaccae. The series is described as above. How it is done:
as §2

In series [8] the test system is Penicillium notatum. The series is described as above. As for the experimental part:
as §2

For series [9], the system named is Pseudomonas aeruginosa. The series is described as above. As for the experimental part: as §2
In series [10] the test system is Sporobolomyces salmonicolor. The series is described as above. As for the experimental part:
as §2

Series [11] has as its system Staphylococcus aureus. The series is described as above. As for the experimental part:
as §2

The test system of series [12] is Enterococcus faecalis VRE. Described as above. To be noted: for antibacterial activity: vancomycin-resistant Enterococcus faecalis.
Text: (§3) FIG. 4. A Activity of synthetic closthioamide (1) using 4 bacterial test strains; from left to right: (1) E. coli, (2) Mycobacterium vaccae, (3) methicillin-resistant Staphylococcus aureus (MRSA), (4) vancomycin-resistant Enterococcus faecalis (VRE). B Ciprofloxacin control.
as §2

The subject of series [13] is Staphylococcus aureus MRSA. The series is described as above.
Text: as §3, §2

A short description of series [14]: Cytotoxicity (data not shown).
The subject of series [15] is E. coli, Mycobacterium vaccae, MRSA, VRE. Kind of series: Activity of synthetic closthioamide using 4 bacterial test strains (FIG. 4A).
Text: as §3

Converted amounts (≈) assume the structure as drawn.

With `Oc1ccc(C(=S)NCCC(=S)NCCC(=S)NCCCNC(=S)CCNC(=S)CCNC(=S)c2ccc(O)cc2)cc1` [closthioamide 1, closthioamide], the values for the 50% growth inhibitory concentration (GI50) in [1] and in [2] were 1.5 µg/mL (≈ 2.16 µM) and 6.4 µg/mL (≈ 9.21 µM), respectively. The midpoint of cytotoxicity in series [3], the CC50, lay at 5.1 µg/mL (≈ 7.34 µM). The antimicrobial activity entry in series [4], in series [5], in [6], in [7], in series [8] and in [9] was “showed activity” in each case. The antimicrobial activity result in series [10], in series [11], in series [12] (Enterococcus faecalis VRE) and in series [13] (Staphylococcus aureus MRSA) was “showed activity” each time. Further, the antibacterial activity result in [12] (FIG. 4, synthetic closthioamide) is on record as “highly active”; in series [12] (preliminary bioactivity profiling, isolated metabolite), “antibacterial activity”; in [13] (FIG. 4, synthetic closthioamide, methicillin-resistant Staphylococcus aureus) it was “highly active”; in [13] (preliminary bioactivity profiling, isolated metabolite, methicillin-resistant Staphylococcus aureus (MRSA)) it was “antibacterial activity”. For the same molecule, in [14], the cytotoxicity result is listed as “only moderate cytotoxicity”. Also, the “activity of synthetic compound compared with the bacterial metabolite” value in series [15] is on record as “equivalent to the activity of the bacterial metabolite”.

Broadly, the GI50 is the concentration at which growth is held to half of that of the control. High values mean lower sensitivity of the cells, low ones greater sensitivity of the cells. As usually defined, the CC50 is the concentration at which the toxic effect on the cells reaches its halfway point. Low values mean harm at low concentration, high ones better tolerance by the cells.

These data come from US8673980B2, “Closthioamides, compositions, and methods for treating bacterial or fungal infections or cancer” (Leibniz-Institut fuer Naturstoff-Forschung und …, priority 2009, dated 2014).
